Data published in PubChem BioAssay AID248 (DTP/NCI, 2004).
Values joined by “and” are separate entries in the source; they are usually repeats but may differ in a detail not shown here. Equal values may be shown once. Toxic doses and inconclusive results are not listed. No stated cut-off is given here; in the data, active means T/C of 150% or more; inactive means T/C below 125%.

Test system: L1210 leukemia ip in BDF1 mice, survival T/C
Assay: NCI In Vivo Anticancer Drug Screen. Data for tumor model L1210 Leukemia (intraperitoneal) in B6D2F1 (BDF1) mice
Conditions: endpoint: mean survival time, higher = longer survival
Summary of the method: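 Tumor was transplanted into mice, which were then dosed with test compound or vehicle alone. Survival was recorded for each group, and the treated figure was expressed relative to the control figure.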

[1] = dose: 100.0 mg/kg/injection, schedule: Q01DX009 (ip), vehicle: saline with Tween-80
[2] = dose: 200.0 mg/kg/injection, schedule: Q01DX009 (ip), vehicle: saline with Tween-80
[3] = dose: 100.0 mg/kg/injection, schedule: Q01DX001 (ip), vehicle: saline
[4] = dose: 100.0 mg/kg/injection, schedule: Q04DX003 (ip), vehicle: saline with Tween-80
[5] = dose: 200.0 mg/kg/injection, schedule: Q04DX003 (ip), vehicle: saline with Tween-80
[6] = dose: 400.0 mg/kg/injection, schedule: Q04DX003 (ip), vehicle: saline with Tween-80
[7] = dose: 400.0 mg/kg/injection, schedule: Q01DX009 (ip), vehicle: saline with Tween-80

Measured: T/C

S=C=NCc1cccc2ccccc12
inactive: dose: 2.5 mg/kg/injection, schedule: Q01DX009 (ip), vehicle: carboxymethylcellulose (CMC) 90 % of control | dose: 5.0 mg/kg/injection, schedule: Q01DX009 (ip), vehicle: carboxymethylcellulose (CMC) 94 % of control | dose: 5.0 mg/kg/injection, schedule: Q04DX003 (ip), vehicle: carboxymethylcellulose (CMC) 101 % of control | dose: 10.0 mg/kg/injection, schedule: Q01DX001 (ip), vehicle: carboxymethylcellulose (CMC) 93 % of control | dose: 10.0 mg/kg/injection, schedule: Q01DX009 (ip), vehicle: carboxymethylcellulose (CMC) 105 % of control | dose: 10.0 mg/kg/injection, schedule: Q04DX003 (ip), vehicle: carboxymethylcellulose (CMC) 97 % of control | dose: 20.0 mg/kg/injection, schedule: Q01DX001 (ip), vehicle: carboxymethylcellulose (CMC) 87 % of control | dose: 20.0 mg/kg/injection, schedule: Q04DX003 (ip), vehicle: carboxymethylcellulose (CMC) 97 % of control

CC(=O)OC1CC2C=CC1C2 (stereo not given) (tested in a mixture with another compound)
inactive: dose: 50.0 mg/kg/injection, schedule: Q01DX009 (ip), vehicle: saline with Tween-80 89 % of control | [1] 89 % of control | [2] 92 % of control

N#CCCNC(=O)N(CCC#N)N=O
inactive: dose: 3.12 mg/kg/injection, schedule: Q01DX Z (ip), vehicle: carboxymethylcellulose (CMC) 100 % of control | dose: 6.25 mg/kg/injection, schedule: Q01DX Z (ip), vehicle: carboxymethylcellulose (CMC) 102 % of control | dose: 12.5 mg/kg/injection, schedule: Q01DX Z (ip), vehicle: carboxymethylcellulose (CMC) 103 % of control | dose: 25.0 mg/kg/injection, schedule: Q01DX Z (ip), vehicle: carboxymethylcellulose (CMC) 118 % of control | dose: 100.0 mg/kg/injection, schedule: Q01DX Z (ip), vehicle: carboxymethylcellulose (CMC) 118 % of control | dose: 200.0 mg/kg/injection, schedule: Q01DX Z (ip), vehicle: carboxymethylcellulose (CMC) 116 % of control
active: dose: 75.0 mg/kg/injection, schedule: Q01DX Z (ip), vehicle: carboxymethylcellulose (CMC) 153 % of control | dose: 150.0 mg/kg/injection, schedule: Q01DX Z (ip), vehicle: carboxymethylcellulose (CMC) 155 % of control

CCCC(=O)Oc1ccc(C(C)(C)CC(C)(C)C)cc1
inactive: [3] 94 % of control | dose: 200.0 mg/kg/injection, schedule: Q01DX001 (ip), vehicle: saline 98 % of control | dose: 400.0 mg/kg/injection, schedule: Q01DX001 (ip), vehicle: saline 100 % of control

C1CCC(SSC2CCCC2)C1
inactive: [4] 89 % of control | [5] 92 % of control | [6] 92 % of control

COc1ccccc1C(C)=O
inactive: dose: 50.0 mg/kg/injection, schedule: Q01DX009 (ip), vehicle: Klucel (hydroxypropylcellulose) (HPC) 97 % of control | dose: 100.0 mg/kg/injection, schedule: Q01DX009 (ip), vehicle: Klucel (hydroxypropylcellulose) (HPC) 100 % of control | dose: 200.0 mg/kg/injection, schedule: Q01DX009 (ip), vehicle: Klucel (hydroxypropylcellulose) (HPC) 87 % of control

CS(=O)(=O)Nc1ccc(Nc2c3ccccc3nc3cc([N+](=O)[O-])ccc23)cc1
inactive: dose: 0.02 mg/kg/injection, schedule: Q01DX009 (ip), vehicle: saline 118 % of control | dose: 0.1 mg/kg/injection, schedule: Q01DX009 (ip), vehicle: acetone 119 % of control | dose: 0.15 mg/kg/injection, schedule: Q01DX009 (ip), vehicle: acetone 112 % of control | dose: 0.6 mg/kg/injection, schedule: Q01DX001 (ip), vehicle: acetone 116 % of control | dose: 1.25 mg/kg/injection, schedule: Q01DX009 (sc), vehicle: Klucel (hydroxypropylcellulose) (HPC) 113 % of control | dose: 1.56 mg/kg/injection, schedule: Q04DX003 (ip), vehicle: saline 107 % of control | dose: 2.5 mg/kg/injection, schedule: Q01DX009 (sc), vehicle: Klucel (hydroxypropylcellulose) (HPC) 118 % of control | dose: 3.12 mg/kg/injection, schedule: Q04DX003 (ip), vehicle: saline 107 % of control | dose: 6.25 mg/kg/injection, schedule: Q04DX003 (ip), vehicle: saline 107 % of control
active: dose: 0.16 mg/kg/injection, schedule: Q01DX009 (ip), vehicle: saline 153 % of control | dose: 0.82 mg/kg/injection, schedule: Q01DX009 (ip), vehicle: acetone 151 % of control | dose: 1.25 mg/kg/injection, schedule: Q01DX009 (ip), vehicle: saline 164 % of control | dose: 2.5 mg/kg/injection, schedule: Q01DX009 (ip), vehicle: saline 156 % of control and 220 % of control | dose: 3.13 mg/kg/injection, schedule: Q01DX001 (ip), vehicle: saline 151 % of control | dose: 5.0 mg/kg/injection, schedule: Q01DX009 (ip), vehicle: saline 184 % of control | dose: 6.25 mg/kg/injection, schedule: Q01DX001 (ip), vehicle: saline 159 % of control | dose: 10.0 mg/kg/injection, schedule: Q01DX009 (sc), vehicle: Klucel (hydroxypropylcellulose) (HPC) 195 % of control | dose: 12.5 mg/kg/injection, schedule: Q01DX001 (ip), vehicle: saline 161 % of control | dose: 25.0 mg/kg/injection, schedule: Q01DX001 (ip), vehicle: saline 240 % of control | [3] 168 % of control

CCCC(C)c1ccc(C(C)=O)cc1 (stereo not given)
inactive: dose: 25.6 mg/kg/injection, schedule: Q04DX002 (ip), vehicle: saline with Tween-80 100 % of control | dose: 64.0 mg/kg/injection, schedule: Q04DX002 (ip), vehicle: saline with Tween-80 92 % of control | [1] 89 % of control | [4] 91 % of control | dose: 160.0 mg/kg/injection, schedule: Q04DX002 (ip), vehicle: saline with Tween-80 88 % of control | [2] 89 % of control | [5] 96 % of control | [7] 90 % of control | dose: 400.0 mg/kg/injection, schedule: Q04DX002 (ip), vehicle: saline with Tween-80 92 % of control | [6] 88 % of control

NC(=O)/C=C/NC(=O)/C=N\O
inactive: dose: 12.5 mg/kg/injection, schedule: Q01DX Z (ip), vehicle: saline 97 % of control and 89 % of control | dose: 25.0 mg/kg/injection, schedule: Q01DX Z (ip), vehicle: saline 92 % of control and 93 % of control | dose: 50.0 mg/kg/injection, schedule: Q01DX Z (ip), vehicle: saline 96 % of control and 97 % of control | dose: 100.0 mg/kg/injection, schedule: Q01DX001 (ip), vehicle: carboxymethylcellulose (CMC) 102 % of control | dose: 100.0 mg/kg/injection, schedule: Q01DX Z (ip), vehicle: saline 96 % of control and 100 % of control | dose: 200.0 mg/kg/injection, schedule: Q01DX001 (ip), vehicle: carboxymethylcellulose (CMC) 96 % of control | dose: 200.0 mg/kg/injection, schedule: Q01DX Z (ip), vehicle: saline 97 % of control and 89 % of control | dose: 400.0 mg/kg/injection, schedule: Q01DX001 (ip), vehicle: carboxymethylcellulose (CMC) 91 % of control

C1=CCC(OC2CCCCO2)=CC1 (stereo not given)
inactive: [1] 96 % of control | [2] 94 % of control | [7] 87 % of control

F[Si](C1CCCCC1)(C1CCCCC1)C1CCCCC1
inactive: [1] 92 % of control | [2] 91 % of control | [7] 89 % of control

CCOC(=O)C(C)(c1c(C)n(C)c2ccccc12)c1c(C)n(C)c2ccccc12
inactive: dose: 50.0 mg/kg/injection, schedule: Q01DX001 (ip), vehicle: other 91 % of control | dose: 100.0 mg/kg/injection, schedule: Q01DX001 (ip), vehicle: other 91 % of control | dose: 200.0 mg/kg/injection, schedule: Q01DX001 (ip), vehicle: other 91 % of control | dose: 400.0 mg/kg/injection, schedule: Q01DX001 (ip), vehicle: other 91 % of control

COCC(=O)O
inactive: dose: 100.0 mg/kg/injection, schedule: Q01DX001 (ip), vehicle: Klucel (hydroxypropylcellulose) (HPC) 100 % of control | dose: 100.0 mg/kg/injection, schedule: Q04DX002 (ip), vehicle: saline 102 % of control | dose: 200.0 mg/kg/injection, schedule: Q01DX001 (ip), vehicle: Klucel (hydroxypropylcellulose) (HPC) 96 % of control | dose: 200.0 mg/kg/injection, schedule: Q04DX002 (ip), vehicle: saline 94 % of control | dose: 400.0 mg/kg/injection, schedule: Q01DX001 (ip), vehicle: Klucel (hydroxypropylcellulose) (HPC) 100 % of control | dose: 400.0 mg/kg/injection, schedule: Q04DX002 (ip), vehicle: saline 97 % of control

CCCCCCC1C/C(=C/N(C)C)C(=O)O1 (stereo not given)
inactive: dose: 100.0 mg/kg/injection, schedule: Q04DX002 (ip), vehicle: Klucel (hydroxypropylcellulose) (HPC) 90 % of control | dose: 200.0 mg/kg/injection, schedule: Q04DX002 (ip), vehicle: Klucel (hydroxypropylcellulose) (HPC) 90 % of control | dose: 400.0 mg/kg/injection, schedule: Q04DX002 (ip), vehicle: Klucel (hydroxypropylcellulose) (HPC) 93 % of control
